Data on 5 compounds can be found in ChEMBL document CHEMBL4840364, “Penicisteckins A-F, Isochroman-Derived Atropisomeric Dimers from Penicillium steckii HNNU-5B18” (J Nat Prod, 2021).

One assay relates to HGC-27. In words: Cytotoxicity against human HGC-27 cells assessed as inhibition of cell viability measured for 48 hrs by CCK colorimetric assay. The assay is classed as functional, cell-based. The following applies: HGC-27, 48 h.
The next assay concerns C6. In words: Cytotoxicity against rat C6 cells assessed as inhibition of cell viability measured for 48 hrs by CCK colorimetric assay. In kind it is functional, cell-based. The following applies: C6, 48 h.
The next assay has as its system SH-SY5Y. The assay is described as follows: Cytotoxicity against human SH-SY5Y cells assessed as inhibition of cell viability measured for 48 hrs by CCK colorimetric assay. The assay is classed as functional, cell-based.
Assay [1] relates to Staphylococcus aureus. In words: Antibacterial activity against Staphylococcus aureus ATCC 29213 assessed as bacterial growth inhibition incubated for 20 hrs by broth micro dilution method. In kind it is functional.
Assay [2] has as its system Staphylococcus aureus. In words: Antibacterial activity against methicillin-resistant Staphylococcus aureus assessed as bacterial growth inhibition incubated for 20 hrs by broth micro dilution method. The assay is classed as functional.

≈ marks a conversion by molar mass, not a printed value.

With `COc1cc(O)c(C)c2c1CO[C@@H](C)C2`, the IC50 in the assay with HGC-27, in the assay on C6 and in the assay on SH-SY5Y was less than 10 µM each time.

For the compound `COC1=CC(=O)C(C)=C(C[C@@H](C)O)C1=O`, the minimum inhibitory concentration (MIC) (commonly the lowest concentration that inhibits growth of the organism) was 2 µg/mL (≈ 9.51 µM) in the assay with Staphylococcus aureus [1] and 8 µg/mL (≈ 38.1 µM) with Staphylococcus aureus [2]. Also, the IC50 in the assay with HGC-27, in the assay on C6 and with SH-SY5Y was less than 10 µM in each case.

As to `COc1c2c(c(C)c(O)c1-c1c(O)c(C)c3c(c1OC)CO[C@@H](C)C3)C[C@H](C)OC2` (atropisomer aR), the half-maximal inhibitory concentration (IC50) in the assay with HGC-27, with C6 and with SH-SY5Y was less than 10 µM each time.

With `COc1cc(O)c(-c2c(O)c(C)c3c(c2OC)CO[C@@H](C)C3)c2c1CO[C@@H](C)C2` (atropisomer aS), the IC50 in the assay with HGC-27, in the assay on C6 and with SH-SY5Y was less than 10 µM in each case.

Regarding `COC1=C(c2c(O)cc(OC)c3c2C[C@H](C)OC3)C(=O)C(C)=C(C[C@@H](C)O)C1=O` (atropisomer aS), the 50% inhibitory concentration (IC50) with HGC-27, in the assay on C6 and in the assay on SH-SY5Y was less than 10 µM in each case.
